Reference: US4312861A, “Pharmaceutical compositions containing N-alkyl-N-(nuclearly-substituted) benzylamines having vasotonia-regulating activity” (Hoechst Aktiengesellschaft, priority 1974, dated 1982)

Tests used:
[1] = test system: isolated guinea-pig heart; assay: Relative coronary blood-flow change in isolated guinea-pig heart (Langendorff)
Protocol: (4) Relative coronary blood-flow change in an isolated guinea-pig heart.
The tests were carried out according to the method of Langendorff (Pflugers Archiv. 61 (1895), page 219).
In Table 5, the change in coronary blood flow after administration of various quantities of the test substance is compared with that after administration of the known compounds heptaminol and Aescin sodium salt.

[2] = Toxicity in the mouse (Litchfield and Wilcoxon); format: in vivo; settings: mouse, in vivo, ip
Protocol: (6) Toxicity in the mouse
Toxicity was determined according to Litchfield and Wilcoxon (J. Pharmacol. exp. Ther. 97 (1949), page 399) in the mouse. In comparison, the values with the known substance aescin sodium salt were determined. Comparative tests with 0.1% solution, of venous and optical compatibility on the rabbit yielded similar results.

perfused rabbit ear = assay: Blood-flow change in perfused isolated rabbit ear, vaso-dilator activity (Ringer-Norfenefrin solution)
Protocol: (3) Blood-flow change in an isolated rabbit ear
The tests were carried out according to Krakow-Pissemski (Pflugers Archiv 151 (1913), page 583 and 156 (1914), page 426). In Table 5a the estimated values of the vaso-constrictor activity in Ringer solutions of varying concentrations are given and in Table 5b values for vasodilatory activity in Ringer-Norfenefrin solutions of varying concentrations are given. As a comparison, the values obtained with the known preparation aescin sodium are given.

isolated portal vein = assay: Isolated rat's portal vein (Berti), increase in tonus
Protocol: (2) Isolated rat's portal vein
The tests on the rat's portal vein, an organ with its own rhythm, were performed according to the method of Berti et al (Arch. int. Pharmacodyn. 184 (1970), page 328). In Table 4, the increase in tonus at various adrenalin concentrations is given in milligrams. As a comparison, the values for the known substance heptaminol (=6-amino-2-methylheptane-2-ol) are also given.

[3] = test system: permeability of the capillaries; assay: Histamine rash test (modified Halpern), capillary permeability; format: in vivo; settings: 30 minutes before histamine
Protocol: The test according to Halpern (Presse medicale 65 (1949), page 949) was used in modified form. The suppressive effect of the compounds according to the invention on the permeability of the capillaries was tested. The blue coloration induced by intravenous administration of trypan blue at two intracutaneous histamine injection points per animal, (trypan blue administered 2 minutes before the histamine), was estimated according to the following scale of values:
indications of blue coloration
clear blue coloration =4
stong blue coloration =6
The preceding evaluation was made from the combined effect at the two injection points.
The test substances were administered i.p. 30 minutes before the histamine injection.

[4] = test system: carrageenin oedema in the rat paw; assay: Suppression of carrageenin oedema in the rat paw (Siegmund); format: in vivo; settings: 3 h p.a.
Protocol: (7) Suppression of carrageenin oedema in the rat paw
The inflammation-reducing and anti-oedematous effects on carrageenin and serotonin oedemas in the rat paw were studied according to Siegmund et al (Proc. Soc. exp. Biol. Med. 95 (1957), page 729). The values are given as percentages, based on the values obtained in control tests using a dummy procedure. In this way, the antiphlogistic activity of the substances according to the invention was tested.

[5] = test system: writhing movements in the mouse; assay: Writhing test (Winter); format: in vivo; settings: 50 mg/kg p.o.
Source text: The analgesic activity of the compounds according to the invention were studied by the method of Winter et al (Proc. Soc. exp. Biol. Med, 111 (1962), page 544), in which the suppression of writhing movements in the mouse was observed.

[6] = 10 μg (first figure where two are given)
[7] = 30 μg (first figure where two are given)
[8] = 100 μg (first figure where two are given)

| SMILES | Relative change in coronary blood flow [1, 6] | Relative change in coronary blood flow [1, 7] | LD50 [2] [mg/kg] | Relative change in blood flow, vaso-dilator activity (perfused rabbit ear; 3 × 10^-5 g/ml) | also measured |
| --- | --- | --- | --- | --- | --- |
| CCOCCCNCc1c(C)cc(C)cc1C [compound 21] | +22 | +23 | 50 to 100 | – | – |
| CCC(C)CC(C)NCc1c(C)cc(C)cc1C (stereo not shown) [compound 28] | – | +118 | 50 to 100 | +47 | Relative change in coronary blood flow [1, 8]: +226; Increase in tonus, isolated rat's portal vein (isolated portal vein; 10^-4 g/ml): +84 milligrams; Increase in tonus, isolated rat's portal vein (isolated portal vein; 10^-5 g/ml): +57 milligrams; Increase in tonus, isolated rat's portal vein (isolated portal vein; 10^-6 g/ml): +21 milligrams; Histamine rash test, blue coloration score (0 = none, 2 = indications, 4 = clear, 6 = strong) ([3]; 3.0 mg/kg i.p.): 2.9 |
| CCCCCNCc1c(C)cc(C)cc1C [compound 14] | – | – | 50 to 100 | – | – |
| CCCCCC(C)NCc1c(C)c(C)cc(C)c1C (stereo not shown) [compound 1] | +53 | +130 | 50 to 100 | – | Relative change in coronary blood flow, second figure after slash ([1]; 10 μg): -14; Relative change in coronary blood flow, second figure after slash ([1]; 30 μg): -11 |
| CC(N)CCCC(C)(C)O (stereo not shown) [Heptaminol, 6-amino-2-methylheptane-2-ol, reference compound] | 0 | 0 | – | – | Relative change in coronary blood flow [1, 8]: 0; Effect on coronary vessels of the guinea-pig heart ([1]; in words): no effect on the guinea-pig heart; Effect on vessels of the tonicised rabbit ear (perfused rabbit ear; in words): intensifies the Ringer-Norfenefrin constriction in the rabbit ear; Control test with heptaminol, rabbit ear (footnote ++) (perfused rabbit ear; mark in 10^-4 g/ml line): constriction; Increase in tonus, isolated rat's portal vein (isolated portal vein; 10^-4 g/ml): +47 milligrams; Increase in tonus, isolated rat's portal vein (isolated portal vein; 10^-5 g/ml): +9 milligrams; Increase in tonus, isolated rat's portal vein (isolated portal vein; 10^-6 g/ml): +9 milligrams |
| CCCCCC(C)NCc1c(Cl)cccc1Cl (stereo not shown) [compound 10] | +33 | – | – | – | – |
| CCCCCC(C)NCc1ccc([N+](=O)[O-])cc1 (stereo not shown) [compound 13] | – | – | 100 to 250 | – | Suppression of carrageenin oedema in the paw (antiphlogistic activity) ([4]; 63 mg/kg p.o.): 17%; Suppression of carrageenin oedema in the paw (antiphlogistic activity) ([4]; 100 mg/kg p.o.): 59% |
| COCCCNCc1c(C)cc(C)cc1C [compound 20] | – | – | 50 to 100 | +30 | Relative change in blood flow, vaso-dilator activity (perfused rabbit ear; 10^-4 g/ml): +131; Relative change in blood flow, vaso-dilator activity (perfused rabbit ear; 10^-5 g/ml): +4; Relative change in blood flow, vaso-dilator activity (perfused rabbit ear; 10^-6 g/ml): +12 |
| CCCCCC(C)NCc1c(C)cc(C(C)(C)C)cc1C (stereo not shown) [compound 5] | +118 | +280 | – | – | – |
| CCCCCC(C)NCc1ccc(Cl)cc1 (single isomer, unassigned) [compound 8] | – | – | 25 to 100 | +66 | Relative change in blood flow, vaso-dilator activity (perfused rabbit ear; 10^-6 g/ml): +3; Suppression of writhing movements [5]: 15% |
| CCCCCC(C)NCc1ccccc1Cl (stereo not shown) [compound 9] | – | – | 100 to 250 | – | – |
| CCCCCC(C)N(Cc1c(C)cc(C)cc1C)CP(C)(C)=O (stereo not shown) [compound 30] | +158 | +211 | 100 to 250 | +67 | Relative change in coronary blood flow [1, 8]: +232; Relative change in blood flow, vaso-dilator activity (perfused rabbit ear; 10^-5 g/ml): +79 |
| Cc1cc(C)c(CNC(C)CCCC(C)C)c(C)c1 (stereo not shown) [compound 29] | – | +111 | 50 to 100 | +19 | Histamine rash test, blue coloration score (0 = none, 2 = indications, 4 = clear, 6 = strong) ([3]; 1.0 mg/kg i.p.): 3.3; Histamine rash test, blue coloration score (0 = none, 2 = indications, 4 = clear, 6 = strong) ([3]; 3.0 mg/kg i.p.): 1.7 |
| CCCCCCNCc1c(C)cc(C)cc1C [compound 15] | – | +68 | 50 to 100 | – | Relative change in coronary blood flow, second figure after slash ([1]; 30 μg): -21; Relative change in coronary blood flow, second figure after slash ([1]; 100 μg): -17; Relative change in coronary blood flow [1, 8]: +85 |
